# Reference: patent US8435556B2, “Transdermal delivery of cannabidiol” (Alltranz, LLC, priority 2005, dated 2013)
# “And” between values parts separate entries of the source, which are not always exact repeats. Equal entries are not always repeated.
# How the values were obtained:
# [1] = full-thickness human skin, Touitou et al. 1988; cited from earlier work
# [2] = plasma THC and CBD concentrations after separate and co-administration
# [3] = in vitro permeation of Δ^9-tetrahydrocannabinol across human skin with various receiver solutions
# [4] = human skin permeation of cannabidiol with permeation enhancers; type: in vitro ADME; conditions: enhancer 6% v/v
# Description: The aim of the experiment was to evaluate the effect of permeation enhancers on human skin permeation of cannabidiol (CBD). The following permeation enhancers were used in the study: • LAUROGLYCOL 90-(Propylene glycol monolaurate 90%)-LG-90 • TRANSCUTOL HP (Purified diethylene glycol monoethyl ether)-TC-HP • LABRAFIL® M 1944 CS (Oleoyl Macrogolglycerides)-LF • LABRASOL® (Caprylocaproyl Macrogolglycerides)-LB • SUPER REFINED® NOVOL NF (Oleyl Alcohol)-OA
# A high-pressure liquid chromatography (HPLC) assay was used for the analysis of CBD in the samples. The HPLC system consisted of a Waters 717 plus Autosampler, Waters 1525 Binary HPLC Pump and Waters 2487 Dual λ Absorbance Detector with Waters Breeze software. A Brownlee C-18 reversed-phase Spheri-5 μm column (220×4.6 mm) with a C-18 reversed phase 7 μm guard column (15×3.2 mm) was used with the UV detector set at a wavelength of 215 nm. The mobile phase was comprised of acetonitrile: 25 mM phosphate buffer with 0.1% triethylamine pH 3.0 (80:20). The flow rate of the mobile phase was […] and 100 μL of the sample was injected onto the column.
# Human skin harvested during abdominoplasty was used for the diffusion studies. Skin sections were obtained by using a Padgett Instruments® dermatome set to 250 microns and stored at −20° C. […] Trans-epidermal water loss was measured (Evaporimeter EP1™, ServoMed, Sweden) after securing the skin in the cells. Pieces of skin with readings below 10 g/m^2/h were used for the diffusion studies. […] An excess quantity of CBD was added to the donor vehicle (propylene glycol:Hanks' buffer (80:20)) solution with and without permeation enhancers at 6% v/v, sonicated for 10 min, and then applied onto the skin. Excess quantity of the drug was used in the donor compartment throughout the diffusion experiment in order to maintain maximum and constant chemical potential of the drug in the donor vehicle. […]
# Drug disposition in the skin samples was measured at the completion of the 48 h experiment. […] Samples were analyzed by HPLC to determine CBD content in […] (pmol) of drug per gram of wet tissue weight. […]
# [5] = skin permeation study of WIN 55,212-2 in flow-through diffusion cells; type: in vitro ADME, human
# Procedure: The skin permeation study was carried out using skin excised during abdominal reduction surgery. The skin sample was harvested from the abdomen using a Padgett dermatome set to 250 μm; the skin sample was frozen at −20° C. for one week. The frozen skin sample was thawed and used at the 250 μm split-thickness for the diffusion study. Three PermeGear In-Line Flow Cells were used for the skin permeation study. The receiver fluid was 6% BRIJ® 98 (Polyoxyethylene 20 Oleyl Ether), in order to increase the partitioning of this extremely lipophilic drug into the receiver. The receiver fluid was pumped through the diffusion cells at a rate of one milliliter per hour. The receiver samples were refrigerated until HPLC analysis. The temperature of the diffusion cells was maintained at 32° C. with a circulating water bath. The diffusion experiment was initiated by charging the donor compartment with 0.25 mL of WIN 55,212-2 Mesylate in propylene glycol (50 mg/mL).
# Samples were analyzed using a HPLC system which consisted of a Waters 717 Autosampler, 501 Pumps, and a 484 Tunable UV Absorbance Detector with Millennium Chromatography Software. A reversed phase Beckman 5 μm particle 4.6 mm×25 cm C-18 column was used with the UV detector set at a wavelength of 215 nm. The mobile phase consisted of 0.05 M monobasic potassium phosphate:acetonitrile (300 mL:700 mL) at a flow rate of 2 mL/min.
# Skin permeation data were plotted as the cumulative amount of drug collected in the receiver compartment as a function of time. The lag times and steady-state fluxes were calculated using the terminal, linear portions of these curves. The slopes (Js) through these curves were determined using linear regression analysis. In all cases, the coefficients of determination for the lines were >0.99.
# Lag times were determined by extrapolating the steady-state curves to the X-axis. The permeability coefficient was calculated from Fick's law of diffusion: […]
smiles,measurement,setting,value
"CCCCCc1cc(O)c2c(c1)OC(C)(C)[C@@H]1CC=C(C)C[C@@H]21 [Δ^8-THC, Δ^8-tetrahydrocannabinol]",flux rate,[1],3.5 μg/cm^2/hr
same,permeability coefficient,[1],0.036 ×10⁻⁶ cm/s
CCCCCc1cc(O)c2c(c1)OC(C)(C)[C@@H]1CCC(C)=C[C@@H]21 [Δ^9-tetrahydrocannabinol],"THC plasma concentration, coadministered with cannabidiol vs alone",[2]; FIG. 11,higher both initially and over time when coadministered
same,permeability difference of tape stripped skin relative to intact skin,[3]; 6% BRIJ 98 receiver solution,six fold
same,permeability enhancement with 6% BSA relative to 4% BSA,"[3]; four subjects, except subject 3",20-50%
same,mean lag time,[3]; intact skin,18.0 ± 3.4 h
same,permeability in presence of BRIJ 98 solution relative to BSA solution,"[3]; receiver BRIJ 98 (6%) vs BSA (4%), five subjects, except subject 4",2-5 fold
same,mean lag time,[3]; stripped skin,7.8 ± 3.9 h
same,permeability with 6% BRIJ 98 vs 0.5% BRIJ 98 receiver solution,"[3]; three subjects, differences not statistically significant",similar
same,permeability of tape stripped skin relative to intact skin,[3]; various receiver solutions,2-3 times
"C=C(C)C1CCC(C)=CC1c1c(O)cc(CCCCC)cc1O (centres unmarked) [CBD, 2-[3-methyl-6-(1-methylethenyl)-2-cyclohexen-1-yl]-5-pentyl-1,3-benzenediol]","cannabidiol plasma concentration, coadministered with THC vs alone",[2]; FIG. 12,higher both initially and over time when coadministered
same,Cumulative amount permeated at 48 h,[4]; 48 h,193.21 ± 22.77 nmol and 338.11 ± 73.09 nmol
same,Lag Time,[4]; donor propylene glycol:Hanks' buffer (80:20),14.19 ± 1.59 h and 9.43 ± 2.47 h
same,Flux,"[4]; steady state, donor propylene glycol:Hanks' buffer (80:20) with excess CBD, receiver with 40% PEG 400, 32° C.",9.16 ± 1.41 nmol/cm^2/h
"Cc1c(C(=O)c2cccc3ccccc23)c2cccc3c2n1[C@H](CN1CCOCC1)CO3 [WIN 55,212-2, (R)-(+)-[2,3-dihydro-5-methyl-3-(4-morpholinylmethyl)-pyrrolo[1,2,3-de]-1,4-benzoxazin-6-yl]-1-naphthalenyl-methanone]",diffusion lag time,"[5]; 250 μm split-thickness skin, donor 50 mg/mL in propylene glycol, receiver 6% BRIJ 98, 32° C., 48 h",24 h
same,drug depletion from the donor compartment,"[5]; 48 h, donor not saturated",< 1%
same,mean flux,"[5]; steady state, donor 50 mg/mL in propylene glycol, receiver 6% BRIJ 98, n=3",2.6 μg/cm^2/h
